≈ marks a conversion by molar mass, not a printed value. Calls of active or inactive are those of the source. The calls are words filed in the database; no cut-off is given here.
What was measured:
Fusarium oxysporum [1] = assay: Antimicrobial activity against 1X 10^7 CFU Fusarium oxysporum FMR 10281 infected in immunosuppressed-OF1 mouse assessed as prolonged survival of mouse at 100 mg/kg, po administered 1 day post infection measured 20 days post […] infection; type: functional, organism-based; set-up: dose 100 mg/kg
Fusarium oxysporum [2] = assay: Antimicrobial activity against 1X 10^7 CFU Fusarium oxysporum FMR 5205 infected in immunosuppressed-OF1 mouse assessed as reduction in spleen fungal burden at 100 mg/kg, po administered 1 day post infection measured on day 6 post dosing; type: functional, organism-based; set-up: dose 100 mg/kg
Fusarium oxysporum [3] = assay: Antimicrobial activity against Fusarium oxysporum FMR 5205 by microdilution method; type: functional
Fusarium oxysporum [4] = assay: Antimicrobial activity against Fusarium oxysporum FMR 10281 by microdilution method; type: functional
Fusarium oxysporum [5] = assay: Antimicrobial activity against 1X 10^7 CFU Fusarium oxysporum FMR 10281 infected in immunosuppressed-OF1 mouse assessed as reduction in spleen fungal burden at 100 mg/kg, po administered 1 day post infection measured on day 6 post dosing; type: functional, organism-based; set-up: dose 100 mg/kg
Fusarium oxysporum [6] = assay: Antimicrobial activity against 1X 10^7 CFU Fusarium oxysporum FMR 5205 infected in immunosuppressed-OF1 mouse assessed as reduction in kidney fungal burden at 100 mg/kg, po administered 1 day post infection measured on day 6 post dosing; type: functional, organism-based; set-up: dose 100 mg/kg
Fusarium oxysporum [7] = assay: Antimicrobial activity against 1X 10^7 CFU Fusarium oxysporum FMR 10281 infected in immunosuppressed-OF1 mouse assessed as prolonged survival of mouse at 3 mg/kg, ip administered 1 day post infection measured 20 days post […] infection; type: functional, organism-based; set-up: dose 3 mg/kg
Fusarium oxysporum [8] = assay: Antimicrobial activity against Fusarium oxysporum FMR 10281 by microdilution method in presence of voriconazole; type: functional
Fusarium oxysporum [9] = assay: Antimicrobial activity against Fusarium oxysporum FMR 5205 by microdilution method in presence of posaconazole; type: functional
Fusarium oxysporum [10] = assay: Antimicrobial activity against Fusarium oxysporum FMR 5205 by microdilution method in presence of voriconazole; type: functional
Fusarium oxysporum [11] = assay: Antimicrobial activity against Fusarium oxysporum FMR 10281 by microdilution method in presence of posaconazole; type: functional
Fusarium oxysporum [12] = assay: Antimicrobial activity against 1X 10^7 CFU Fusarium oxysporum FMR 10281 infected in immunosuppressed-OF1 mouse assessed as prolonged survival of mouse at 60 mg/kg, po administered 1 day post infection measured 20 days post […] infection; type: functional, organism-based; set-up: dose 60 mg/kg
Fusarium oxysporum [13] = assay: Antimicrobial activity against 1X 10^7 CFU Fusarium oxysporum FMR 5205 infected in immunosuppressed-OF1 mouse assessed as reduction in kidney fungal burden at 60 mg/kg, po administered 1 day post infection measured on day 6 post dosing; type: functional, organism-based; set-up: dose 60 mg/kg
Fusarium oxysporum [14] = assay: Antimicrobial activity against 1X 10^7 CFU Fusarium oxysporum FMR 5205 infected in immunosuppressed-OF1 mouse assessed as reduction in spleen fungal burden at 3 mg/kg, ip administered 1 day post infection measured on day 6 post dosing; type: functional, organism-based; set-up: dose 3 mg/kg
Fusarium oxysporum [15] = assay: Antimicrobial activity against 1X 10^7 CFU Fusarium oxysporum FMR 10281 infected in immunosuppressed-OF1 mouse assessed as reduction in spleen fungal burden at 3 mg/kg, ip administered 1 day post infection measured on day 6 post dosing; type: functional, organism-based; set-up: dose 3 mg/kg

Compound	Activity (Fusarium oxysporum [1])	Activity (Fusarium oxysporum [2])	MIC (Fusarium oxysporum [3]) [µg/mL]	MIC (Fusarium oxysporum [4]) [µg/mL]	Activity (Fusarium oxysporum [5])	Activity (Fusarium oxysporum [6])	Activity (Fusarium oxysporum [7])	MIC (Fusarium oxysporum [8]) [µg/mL]	MIC (Fusarium oxysporum [9]) [µg/mL]	MIC (Fusarium oxysporum [10]) [µg/mL]	MIC (Fusarium oxysporum [11]) [µg/mL]	Activity (Fusarium oxysporum [12])	Activity (Fusarium oxysporum [13])	Activity (Fusarium oxysporum [14])	Activity (Fusarium oxysporum [15])
CC[C@@H]([C@H](C)O)n1ncn(-c2ccc(N3CCN(c4ccc(OC[C@@H]5CO[C@@](Cn6cncn6)(c6ccc(F)cc6F)C5)cc4)CC3)cc2)c1=O [POSACONAZOLE]	Active	Active	2 (≈ 2.85 µM)	> 16	Active	Active	–	–	–	–	–	–	–	–	–
C[C@@H]1[C@H](O)[C@@H](C)/C=C/C=C/C=C/C=C/C=C/C=C/C=C/[C@H](O[C@@H]2O[C@H](C)[C@@H](O)[C@H](N)[C@@H]2O)C[C@@H]2O[C@](O)(C[C@@H](O)C[C@@H](O)[C@H](O)CC[C@@H](O)C[C@@H](O)CC(=O)O[C@H]1C)C[C@H](O)[C@H]2C(=O)O [AMPHOTERICIN B]	–	–	2 (≈ 2.16 µM)	4 (≈ 4.33 µM)	–	–	inactive	4	2	2	4	–	–	–	–
C[C@@H](c1ncncc1F)[C@](O)(Cn1cncn1)c1ccc(F)cc1F [VORICONAZOLE]	–	–	4 (≈ 11.5 µM)	16 (≈ 45.8 µM)	–	–	–	–	–	–	–	inactive	Active	Active	Active
